# Experiments:
# Conditions in all cases: scale 0 to 100
# [1] = test system: blackgrass; experiment: Test D postemergence; assay type: in vivo, Alopecurus myosuroides
# Description: (§1) Seeds of plant species selected from bluegrass (annual bluegrass, Poa annua), blackgrass (Alopecurus myosuroides), canarygrass (littleseed canarygrass, Phalaris minor), chickweed (common chickweed, Stellaria media), galium (catchweed bedstraw, Galium aparine), bromegrass, downy (downy bromegrass, Bromus tectorum), field poppy (Papaver rhoeas), field violet (Viola arvensis), foxtail, green (green foxtail, Setaria viridis), deadnettle (henbit deadnettle, Lamium amplexicaule), ryegrass, Italian (Italian ryegrass, Lolium multiflorum), kochia (Kochia scoparia), lambsquarters (Chenopodium album), oilseed rape (Brassica napus), pigweed (redroot pigweed, Amaranthus retroflexus), chamomile (scentless chamomile, Matricaria inodora), speedwell (bird's-eye speedwell, Veronica persica), barley, spring (spring barley, Hordeum vulgare), wheat, spring (spring wheat, Triticum aestivum), buckwheat, wild (wild buckwheat, Polygonum convolvulus), mustard, wild (wild mustard, Sinapis arvensis), oat, wild (wild oat, Avena fatua), radish, wild (wild radish, Raphanus raphanistrum), windgrass (Apera spica-venti), Russian thistle (Salsola kali), barley, winter (winter barley, Hordeum vulgare), and wheat, winter (winter wheat, Triticum aestivum) were planted into a silt loam soil and treated preemergence with test chemicals formulated in a non-phytotoxic solvent mixture which included a surfactant.
# (§2) At the same time, these species were planted in pots containing Redi-Earth® planting medium (Scotts Company, 14111 Scottslawn Road, Marysville, Ohio 43041) comprising spaghnum peat moss, vermiculite, wetting agent and starter nutrients and treated with postemergence applications of the test chemicals formulated in the same manner. Plants ranged in height from 2 to 18 cm (1- to 4-leaf stage). Treated plants and controls were maintained in a controlled growth environment for 14 to 21 days after which time all species were compared to controls and visually evaluated. Plant response ratings, summarized in Table D, are based on a scale of 0 to 100 where 0 is no effect and 100 is complete control. A dash (-) response means no test result.
# [2] = test system: lambsquarters; experiment: Test D preemergence; assay type: in vivo, Chenopodium album
# Description: as §1, §2
# [3] = test system: mustard, wild; experiment: Test D postemergence; assay type: in vivo, Sinapis arvensis
# Description: as §1, §2
# [4] = test system: speedwell; experiment: Test D preemergence; assay type: in vivo, Veronica persica
# Description: as §1, §2
# [5] = test system: barley, winter; experiment: Test D postemergence; assay type: in vivo, Hordeum vulgare
# Description: as §1, §2
# [6] = test system: barley, spring; experiment: Test D postemergence; assay type: in vivo, Hordeum vulgare
# Description: as §1, §2
# [7] = test system: bromegrass, downy; experiment: Test D preemergence; assay type: in vivo, Bromus tectorum
# Description: as §1, §2
Structure (SMILES),"Blackgrass plant response rating ([1]; Postemergence, 31 g ai/ha)","Blackgrass plant response rating ([1]; Postemergence, 125 g ai/ha)","Blackgrass plant response rating ([1]; Postemergence, 250 g ai/ha)","Blackgrass plant response rating ([1]; postemergence, 62 g ai/ha)","Plant response rating, Lambsquarters ([2]; 62 g ai/ha)","Plant response rating, Lambsquarters ([2]; 125 g ai/ha)","Plant response rating, Lambsquarters ([2]; 250 g ai/ha)","Mustard, Wild plant response rating ([3]; Postemergence, 31 g ai/ha)","Mustard, Wild plant response rating ([3]; Postemergence, 125 g ai/ha)","Mustard, Wild plant response rating ([3]; Postemergence, 250 g ai/ha)","Mustard, Wild plant response rating ([3]; postemergence, 62 g ai/ha)","Plant response rating, Speedwell ([4]; 62 g ai/ha)","Plant response rating, Speedwell ([4]; 125 g ai/ha)","Plant response rating, Speedwell ([4]; 250 g ai/ha)","Barley, Winter plant response rating ([5]; Postemergence, 31 g ai/ha)","Barley, Winter plant response rating ([5]; Postemergence, 125 g ai/ha)","Barley, Winter plant response rating ([5]; Postemergence, 250 g ai/ha)","Barley, Winter plant response rating ([5]; postemergence, 62 g ai/ha)","Barley, Spring plant response rating ([6]; Postemergence, 31 g ai/ha)","Barley, Spring plant response rating ([6]; Postemergence, 125 g ai/ha)",other results
CCc1cc(C(=O)NC(C)C)nn1Cc1ccnc(C(F)(F)F)c1 [Compound 103],5,20,35,10,70,100,100,25,60,60,45,100,100,100,0,5,15,5,0,10,"Plant response rating, Lambsquarters ([2]; 31 g ai/ha): 65; Plant response rating, Speedwell ([4]; 31 g ai/ha): 70; Barley, Spring plant response rating ([6]; Postemergence, 250 g ai/ha): 15; Barley, Spring plant response rating ([6]; postemergence, 62 g ai/ha): 0; Plant response rating, Bromegrass, Downy ([7]; 31 g ai/ha): 5; Plant response rating, Bromegrass, Downy ([7]; 62 g ai/ha): 10; Plant response rating, Bromegrass, Downy ([7]; 125 g ai/ha): 40; Plant response rating, Bromegrass, Downy ([7]; 250 g ai/ha): 85"
CCCc1cc(C(=O)NCC(F)(F)F)nn1Cc1cc(C(F)(F)F)nn1C [Compound 138],25,40,75,25,85,100,100,100,100,100,100,100,100,100,15,20,40,15,15,25,"Barley, Spring plant response rating ([6]; Postemergence, 250 g ai/ha): 40; Barley, Spring plant response rating ([6]; postemergence, 62 g ai/ha): 15; Plant response rating, Bromegrass, Downy ([7]; 31 g ai/ha): 10; Plant response rating, Bromegrass, Downy ([7]; 62 g ai/ha): 15; Plant response rating, Bromegrass, Downy ([7]; 125 g ai/ha): 20; Plant response rating, Bromegrass, Downy ([7]; 250 g ai/ha): 65"
CCOc1cc(C(=O)NC2CC2)nn1Cc1ccnc(C(F)(F)F)c1 [Compound 189],10,15,20,10,100,100,100,40,40,80,40,100,100,100,15,20,20,15,10,15,"Barley, Spring plant response rating ([6]; Postemergence, 250 g ai/ha): 25; Barley, Spring plant response rating ([6]; postemergence, 62 g ai/ha): 10; Plant response rating, Bromegrass, Downy ([7]; 31 g ai/ha): 0; Plant response rating, Bromegrass, Downy ([7]; 62 g ai/ha): 15; Plant response rating, Bromegrass, Downy ([7]; 125 g ai/ha): 20; Plant response rating, Bromegrass, Downy ([7]; 250 g ai/ha): 55"

# From US20150105252A1, “SUBSTITUTED PYRAZOLES AS HERBICIDES” (E I DU PONT DE NEMOURS AND COMPANY, priority 2013, published 2015)
